Legend:
tumor associated TG2 = molecular target: T1, tumor associated TG2 (Mus musculus, UniProt P21981); experiment: Intracranial DBT tumor associated TG2 activity after dosing; format: in vivo, mice
T1 construct: from tissue; host or cells: intracranial DBT glioblastoma tumours from dosed mice
T1 sequence (P21981 1-686): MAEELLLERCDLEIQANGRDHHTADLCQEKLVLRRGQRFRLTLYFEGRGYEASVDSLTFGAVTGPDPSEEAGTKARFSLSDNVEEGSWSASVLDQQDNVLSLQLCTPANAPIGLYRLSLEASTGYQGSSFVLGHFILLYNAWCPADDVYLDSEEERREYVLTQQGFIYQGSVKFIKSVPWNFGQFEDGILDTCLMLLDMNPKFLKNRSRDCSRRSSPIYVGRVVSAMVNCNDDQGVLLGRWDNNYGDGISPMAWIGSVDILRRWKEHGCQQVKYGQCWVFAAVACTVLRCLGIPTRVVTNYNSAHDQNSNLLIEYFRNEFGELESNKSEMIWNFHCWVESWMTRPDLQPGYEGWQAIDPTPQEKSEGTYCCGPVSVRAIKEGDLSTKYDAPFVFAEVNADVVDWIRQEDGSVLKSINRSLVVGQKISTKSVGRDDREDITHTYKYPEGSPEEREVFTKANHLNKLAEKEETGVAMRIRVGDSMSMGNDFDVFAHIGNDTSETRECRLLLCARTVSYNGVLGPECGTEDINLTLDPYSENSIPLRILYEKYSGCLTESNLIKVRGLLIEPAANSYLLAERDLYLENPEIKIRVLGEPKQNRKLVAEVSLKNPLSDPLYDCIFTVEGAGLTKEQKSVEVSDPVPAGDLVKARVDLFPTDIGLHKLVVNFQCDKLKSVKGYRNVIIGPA
Method: To test whether therapeutic doses of KCC009 can modulate TG2 activity associated with intracranial glioblastomas, DBT tumors were injected intracranially in mice. As judged by MRI, the mice consistently established intracranial tumors after 7-10 days following injections, which, if untreated, caused death by 2-3 weeks. In an initial dose-finding experiment, cohorts of mice were administered 4 daily doses of vehicle or KCC009 (12.5 mg/kg, 25 mg/kg and 50 mg/kg) starting on day 11 after intra-cranial injections. Twenty-four hours later, the mice were sacrificed and tumors analyzed. […] Based on these findings a dose of 35 mg/kg was used for subsequent experiments in mice harboring intracranial DBT tumors.
As summarized in Table 4, KCC009 treatment led to significant suppression of TG2 activity after 15 min, whereas enzyme activity recovers fully by 24 h. Both uninhibited and inhibited activity levels are consistent with similar measurements in the small intestinal mucosa (data not shown).

jejunal TG2 = molecular target: T2, jejunal TG2 (Rattus norvegicus, UniProt Q9WVJ6); experiment: Jejunal mucosal TG2 activity after oral dosing in kneaded gluten vehicle; format: in vivo, rats; conditions: 35 mg/kg oral in kneaded gluten vehicle, 1 h after administration
T2 construct: from tissue; host or cells: rat jejunal mucosa
T2 sequence (Q9WVJ6 1-686): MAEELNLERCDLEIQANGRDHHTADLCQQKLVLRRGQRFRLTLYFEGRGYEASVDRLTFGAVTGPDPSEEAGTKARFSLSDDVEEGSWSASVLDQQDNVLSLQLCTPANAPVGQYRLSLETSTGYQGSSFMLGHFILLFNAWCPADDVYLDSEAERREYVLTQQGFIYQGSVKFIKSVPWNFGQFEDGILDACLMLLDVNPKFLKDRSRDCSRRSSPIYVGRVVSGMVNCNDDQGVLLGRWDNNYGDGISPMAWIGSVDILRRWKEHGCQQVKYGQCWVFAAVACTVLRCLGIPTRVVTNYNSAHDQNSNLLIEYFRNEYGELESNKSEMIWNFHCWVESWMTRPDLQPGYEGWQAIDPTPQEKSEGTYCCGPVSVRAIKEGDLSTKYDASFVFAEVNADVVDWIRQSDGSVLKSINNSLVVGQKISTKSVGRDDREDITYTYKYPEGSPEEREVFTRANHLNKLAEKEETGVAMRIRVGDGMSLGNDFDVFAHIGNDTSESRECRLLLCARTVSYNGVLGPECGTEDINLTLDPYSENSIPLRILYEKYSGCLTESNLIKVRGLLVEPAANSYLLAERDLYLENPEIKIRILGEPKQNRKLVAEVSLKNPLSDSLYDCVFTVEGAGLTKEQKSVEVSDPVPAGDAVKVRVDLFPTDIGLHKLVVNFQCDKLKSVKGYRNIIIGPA
Description: Due to the absence of an appropriate animal model for Celiac Sprue, the therapeutic benefit of TG2 inhibitors for this disease can only be validated in patients. Our goal is therefore to identify a safe, oral TG2 inhibitor that can block mucosal TG2 activity in the upper small intestine of Celiac Sprue patients. Such an agent could be used in the context of a short (2 week) blinded crossover trial in Celiac Sprue patients to determine if TG2 inhibition protects a Celiac Sprue patient from gluten-induced malabsorption. From available data, KCC009 may be precisely such a compound. […] To test whether orally administered KCC009 can inhibit jejunal TG2 activity, adult male rats were dosed with 35 mg/kg KCC009 in a kneaded gluten vehicle. Animals were sacrificed 1 h after administration of either vehicle-gluten (n=3) or drug-gluten (n=4), and jejunal mucosa was harvested. In vehicle treated animals, jejunal TG2 activity was 21±7 pmol/min/mg protein, whereas in KCC009 treated rats TG2 activity of 5.5±3 pmol/min/mg protein was observed. Thus, a suitable oral formulation may therefore enable local delivery of KCC009 to intestinal mucosa.

DBT cells = experiment: Clonogenic radiosensitizer assay; format: cell-based, murine
Method: FIG. 2: KCC009 as a radiosensitizer. Cultured DBT cells were treated with radiation alone (3.2 Gy) (left) or radiation plus 0.5 mM KCC009 (right), and plated on soft agar to evaluate cell viability.
In addition to evaluating the chemosensitizing potential of KCC009, this compound's potential as a radiosensitizer was also evaluated. For this clonogenic assays were used to measure colony formation after a single radiation treatment. The studies were performed in triplicate with varying doses of XRT and number of cells plated. […] A representative photo of a clonogenic assay plate treated with X-ray alone compared with a plate pre-treated with 0.5 mM KCC009 plus X-ray is shown in FIG. 2.

HCT-116 = experiment: Combination with epothilone C in colon cancer cells; format: cell-based, human; conditions: KCC009 in the 1-100 μM range
glioblastoma cells = experiment: In vitro treatment of glioblastoma cells; format: cell-based
[1] = test system: subcutaneous murine DBT glioblastoma tumors; experiment: Subcutaneous DBT glioblastoma tumor study with BCNU; conditions: in vivo, combination with BCNU
[2] = Preliminary pharmacokinetic and toxicity studies; conditions: mice

## O=C(N[C@@H](Cc1ccc(O)cc1)C(=O)NCC1CC(Br)=NO1)OCc1ccccc1 (stereo partly shown) [Compound 59]
Tumor associated TG2; BCNU + 50 mg/kg KCC009, 15 min after last of four daily doses
  TG2 activity-BCNU + KCC009: 1.2 ± 0.3 (n = 4) nmol/h/mg protein
Tumor associated TG2; BCNU + 50 mg/kg KCC009, 24 h after last of four daily doses
  TG2 activity-BCNU + KCC009: 2.1 ± 0.2 (n = 3) nmol/h/mg protein
Jejunal TG2
  jejunal TG2 activity: 5.5±3 pmol/min/mg protein
DBT cells; 0.5 mM KCC009, 3.2 Gy X-ray
  enhancement of cell death in response to radiation: two orders of magnitude
DBT cells; at corresponding concentrations, no radiation
  effect of KCC009 alone on cell viability: does not affect cell viability
HCT-116
  reduction of GI50 for epothilone C: > 2 fold
Glioblastoma cells
  apoptosis: promoted apoptosis
  changes in levels of survival proteins: markedly decreased levels of phosphorylated Akt, survivin, phosphorylated Bad, and phosphorylated glycogen synthetase kinase 3β; and increased levels of the pro-apoptotic BH3-only protein, Bim
  sensitivity to chemotherapeutic agents: enhanced sensitivity to chemotherapeutic agents
[1]
  synergism with BCNU: excellent synergism
[2]
  oral bioavailability: reasonable oral bioavailability
  serum half-life: short
  toxicity: low toxicity

From patent US8153593B2, “Transglutaminase inhibitors and methods of use thereof” (The Board of Trustees of the Leland Stanford Junior …, priority 2003, dated 2012)
